# Measurements from patent US20190249166A1, “Antidote for Chondroitinase” (priority 2018, published 2019).
# Assays:
# [1] = system: intervertebral disc; assay: Disc height index (DHI) by Micro-CT after intradiscal injection in rabbits; format: in vivo, New Zealand rabbits; settings: IVD injected with 0.05 U and 0.15 U chondroitinase ABC only
# [2] = system: intervertebral disc; assay: as above; format: in vivo, New Zealand rabbits; settings: for DHI, with heparin / effect on DHI reduction caused by chondroitinase ABC: 0.35 mg heparin
# Procedure: Being used as an antidote, the non-substrate GAG of the present invention is effective in vivo. In the case of chemonucleolysis by chondroitinase ABC, the enzyme is injected into the nucleus pulposus for partial digestion. The effective antidote will be able to inhibit the activity of chondroitinase ABC intradiscally, as well as the reduction of the size of the intervertebral disc. […] When comparing to the control animal, for which the intervertebral disc is injected with Chondroitinase ABC only, the reduction of the disc height can only be observed in the control animal. The detailed experimental result is illustrated in Example 6.
# New Zealand rabbits weighing 2.5-3.0 kg were divided into two groups: (1) injection of Chondroitinase ABC (0.05 U and 0.15 U) and heparin (0.35 mg); and (2) injection of chondroitinase ABC (0.05 U and 0.15 U). Before injection of chondroitinase ABC with or without heparin, rabbits were fixed in the dorsal position and anesthetized by 10% chloral hydrate (1 ml/kg). The intervertebral disc (IVD) was located by means of portable x-ray fluoroscope and the injection of the chondroitinase ABC with or without heparin was under fluoroscopic guidance. Rabbits were sacrificed just after the injection and 3 weeks after of injection for collecting the spine. The disc height index (DHI) analyzed by using LaTheta™ Micro-CT scanners (Hitachi-Aloka) at a resolution of 48 um (FIG. 7) and is listed in Table 2.
# [3] = target: T1, chondroitinase ABC (Proteus vulgaris, UniProt P59807); assay: Disc dissolution assay with bovine tail nucleus pulposus, absorbance at 232 nm; format: biochemical
# T1 sequence (P59807 25-1021): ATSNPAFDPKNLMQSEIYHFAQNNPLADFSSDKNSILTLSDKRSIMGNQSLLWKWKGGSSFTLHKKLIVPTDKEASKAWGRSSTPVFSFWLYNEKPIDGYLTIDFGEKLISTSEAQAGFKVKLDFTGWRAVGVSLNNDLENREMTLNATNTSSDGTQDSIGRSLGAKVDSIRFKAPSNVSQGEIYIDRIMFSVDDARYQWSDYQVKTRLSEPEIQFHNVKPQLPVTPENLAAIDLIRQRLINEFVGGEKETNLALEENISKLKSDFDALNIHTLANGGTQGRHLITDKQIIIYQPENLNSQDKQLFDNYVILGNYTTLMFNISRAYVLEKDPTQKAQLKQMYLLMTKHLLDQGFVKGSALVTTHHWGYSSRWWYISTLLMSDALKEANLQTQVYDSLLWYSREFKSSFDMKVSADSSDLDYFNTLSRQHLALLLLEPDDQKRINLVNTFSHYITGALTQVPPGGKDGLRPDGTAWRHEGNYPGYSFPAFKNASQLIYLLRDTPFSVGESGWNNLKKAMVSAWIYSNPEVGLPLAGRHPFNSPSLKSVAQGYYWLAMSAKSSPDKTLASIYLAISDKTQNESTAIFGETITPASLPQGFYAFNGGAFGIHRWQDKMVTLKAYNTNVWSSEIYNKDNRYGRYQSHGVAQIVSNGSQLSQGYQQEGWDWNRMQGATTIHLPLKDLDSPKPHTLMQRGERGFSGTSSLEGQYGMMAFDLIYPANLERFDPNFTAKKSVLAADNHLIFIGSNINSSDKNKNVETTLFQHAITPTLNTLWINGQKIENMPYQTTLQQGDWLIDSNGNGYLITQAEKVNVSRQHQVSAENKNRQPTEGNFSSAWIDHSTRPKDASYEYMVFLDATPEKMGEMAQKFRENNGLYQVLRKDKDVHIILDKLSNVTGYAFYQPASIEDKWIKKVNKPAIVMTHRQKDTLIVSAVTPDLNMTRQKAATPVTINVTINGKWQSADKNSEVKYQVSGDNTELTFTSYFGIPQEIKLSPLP
# Source text: In the case of using chondroitinase as a chemonucleolysis agent, the site of injection is a gel-like nucleus pulposus which is dense with chondroitin sulfate, collagen, and the other extra-cellular matrix. To evaluate the effect of these matrices on the inhibition, a disc dissolution assay can be conducted. In the experiment, the nucleus pulposus, of which chondroitin sulfate is composed of 65% dry weight, are collected from bovine tails. […]
# Introducing the non-substrate GAG, e.g. heparin, into the solution together with the chondroitinase, results in suppression of the release of chondroitin sulfate tetrasaccharide and/or disaccharide from the nucleus pulposus sample, is therefore a strong indication of the inhibitory and antidote effect on the enzyme. This inhibition of tetrasaccharide/disaccharide release is reflected by the reduction of the absorbance at 232 nm when compared with the buffer solution in the presence chondroitinase only. […]
# In disc dissolution assay, 6 intervertebral discs were obtained from a bovine tail. […] The absorbance at 232 nm of each solution was measured at 0 hours, 5 hours, and 20 hours after the immersion of the nucleus pulposus. The increase in absorbance was predominantly due to the dissolution of the small-molecule-containing unsaturated carbon-carbon double bond from the nucleus pulposus. […]
# [4] = target: T1, chondroitinase ABC; assay: Chondroitinase enzyme inhibition assay, absorbance at 232 nm with chondroitin sulfate C; format: biochemical; settings: 0.0125 mg/ml heparin; 0.01 U/ml chondroitinase ABC; 0.1 mg/ml chondroitin sulfate C; 37° C., 20 min
# Procedure: Freeze-dried chondroitinase is reconstituted in 0.1-10 mg/ml BSA solution, preferably 1 mg/ml. The chondroitinase solution is serially diluted into a final concentration in the range of 0.065-0.35 U/ml, and more preferably 0.260-0.175 U/ml. Chondroitin sulfate C is dissolved in a buffer at pH 7.0-9.0, preferably at pH 8.0±0.1 with Tris-HCl, sodium phosphate, sodium acetate or sodium borate, preferably 10-250 mM, and more preferably 50 mM Tris-HCl as buffer. The final concentration of chondroitin sulfate C is at the range of 0.2-20 mg/ml. Chondroitinase solution and the chondroitin sulfate C solution are pre-incubated in 37° C. and mixed in a ratio of 1:50. The reaction mixture is further incubated for 20 min for allowing the enzymatic reaction proceeding. The absorbance of the reaction mixture is continuously monitored by spectrophotometer and the rate of the reaction is calculated by multiplying the slope of the absorbance-time curve with millimolar extinct coefficient of the reaction product at 232 nm (which is reported to be 5.5.). […]
# 2 mg/ml Chondroitin sulfate C solution was prepared by dissolving in buffer at pH 8.0 Tris-HCl (50 mM). […] The reaction mixture was further incubated at 37° C. for 20 min in spectrophotometer and the absorbance at 232 nm was continuously monitored. […] In FIG. 3, the absorbance of the solution without the presence of heparin at 232 nm increased linearly.
# [5] = target: T1, chondroitinase ABC; assay: Electrophoretic mobility shift assay (EMSA) of chondroitinase ABC and heparin; format: binding; settings: 20 μg chondroitinase ABC with 3.8 μg heparin (about 0.2 nmol each), room temperature 30 min
# Source text: Further experiments can be applied to show the direct interaction, or more precisely binding, between GAG and chondroitinase. One of the experimental methods that can show the direct interaction between non-substrate GAG and chondroitinase (without introducing other molecule, like the substrate) is the electrophoretic mobility shift (EMSA) assay.
# The principle of EMSA is that the mobility of biomolecules under electrophoresis is affected by the size and charge of the biomolecule. […] The overall size will increase and the mobility is usually changed in the gel electrophoresis. In other words, a shift in the position of the biomolecule in the gel will be observed if there is binding between the biomolecules. For studying the interaction between chondroitinase and non-substrate GAG, EMSA is conducted as described. 5-30 μg chondroitinase is mixed with (a) 0.5 molar ratio, (b) equal molar, and (c) 2 folds molar excess of GAG, and incubated at room temperature for at least 20 min, and more preferred 30 min. These mixtures are loaded onto native polyacrylamide gel and subjected to electrophoresis for 2.5 hours at 100 V. Two identical gels are prepared but stained with different staining solution (Alcian blue for GAG, and Coomassie blue for chondroitinase). […]
# [6] = target: T1, chondroitinase ABC; assay: Time profile of inhibition of chondroitinase ABC by heparin, absorbance at 232 nm; format: biochemical
# Procedure: In one embodiment, the inhibition of chondroitinase ABC by heparin could be at a particular time point during the enzymatic treatment, so that the enzymatic action can be precisely terminated. […] The enzymatic reaction in the mixture, which is the digestion of the chondroitin sulfate polymer into unsaturated oligosaccharide or disaccharide, can be monitored at 232 nm with incubation in 37° C. The reaction can be incubated for 5 hours and at 1.5 and 2.5 hours, with suitable concentrations of heparin including, but not limited to, 0.1-0.01 times the chondroitin sulfate, being introduced for evaluating the time response of the inhibition effect. Detailed experimental results are illustrated in example 5.
# Chondroitin sulfate and chondroitinase ABC were introduced into 50 mM Tris HCl buffered solution (pH 7.6), to a final concentration of 1 mg/ml and 0.001 U/ml. […] At time of 0 hour, 1.5 hour, and 2.5 hour, 0.01 mg/ml heparin was introduced into the reaction mixture separately into 3 reaction mixture, where the remaining reaction mixture was sampled and monitored at the same time interval as the 3 reaction mixture with heparin introduction. The progress of the enzymatic reaction was monitored by measuring the absorbance at 232 nm of a sample taken from the reaction mixture every 30 min.
Substance,effect on DHI [1],"DHI, without heparin ([2]; 0.05 U chondroitinase ABC only)","DHI, without heparin ([2]; 0.15 U chondroitinase ABC only)","DHI, without heparin ([2]; 3 weeks after injection, 0.05 U chondroitinase ABC only)","DHI, without heparin ([2]; 3 weeks after injection, 0.15 U chondroitinase ABC only)","absorbance at 232 nm of solution (disc dissolution) ([3]; 1U/ml chondroitinase ABC without heparin, compared with PBS and sodium lactate)",inhibition of enzymatic reaction of chondroitinase (absorbance at 232 nm) [4],"binding to chondroitinase ABC (EMSA, Alcian Blue stain) [5]","DHI, with heparin ([2]; 0 day after injection, 0.05 U chondroitinase ABC)","DHI, with heparin ([2]; 0 day after injection, 0.15 U chondroitinase ABC)",effect on DHI reduction caused by chondroitinase ABC ([2]; 0.05 U chondroitinase ABC),effect on DHI reduction caused by chondroitinase ABC ([2]; 0.15 U chondroitinase ABC),"DHI, with heparin ([2]; 3 weeks after injection, 0.05 U chondroitinase ABC)","DHI, with heparin ([2]; 3 weeks after injection, 0.15 U chondroitinase ABC)","absorbance at 232 nm of solution (disc dissolution) ([3]; 1U/ml chondroitinase ABC and 1 mg/ml heparin in PBS with 10 mM sodium lactate, 0, 5, 20 hours)","rate of increase in absorbance at 232 nm of the reaction mixture ([6]; 0.01 mg/ml heparin introduced at 0, 1.5 or 2.5 hour, 1 mg/ml chondroitin sulfate, 0.001 U/ml chondroitinase ABC, 37° C., 5 hours)","persistence of inhibition of the enzymatic reaction ([6]; 0.01 mg/ml heparin, throughout the 5 hours reaction period)"
Chondroitinase ABC,significantly reduction of DHI,0.082,0.071,0.044,0.048,the absorbance increased remarkably,,,,,,,,,,,
heparin,,,,,,,completely inhibited,binds tightly to the enzyme,0.081,0.085,significantly inhibited the DHI reduction,inhibited the DHI reduction but the inhibitory effect was not as significant as at the lower concentration,0.082,0.066,significantly reduced the absorbance,significantly reduced,remains stable and constant
